What was measured:
Type in all cases: in vivo
[1] = test system: foxtail, giant (giant foxtail, Setaria faberii); assay: Test A preemergence, directed soil spray, visual injury rating; details: 0 is no effect, 100 is complete control
From the text: (§1) Seeds of plant species selected from barnyardgrass (Echinochloa crus-galli), kochia (Kochia scoparia), ragweed (common ragweed, Ambrosia elatior), ryegrass, It. (Italian ryegrass, Lolium multiflorum), foxtail, giant (giant foxtail, Setaria faberii), and pigweed (Amaranthus retroflexus), were planted into a blend of loam soil and sand and treated preemergence with a directed soil spray using test chemicals formulated in a non-phytotoxic solvent mixture which included a surfactant.
(§2) At the same time, plants selected from these weed species and also wheat (Triticum aestivum), corn (Zea mays), blackgrass (Alopecurus myosuroides), and galium (catchweed bedstraw, Galium aparine), were planted in pots containing the same blend of loam soil and sand and treated with postemergence applications of test chemicals formulated in the same manner Plants ranged in height from 2 to 10 cm and were in the one- to two-leaf stage for the postemergence treatment. Treated plants and untreated controls were maintained in a greenhouse for approximately 10 d, after which time all treated plants were compared to untreated controls and visually evaluated for injury. Plant response ratings, summarized in Table A, are based on a 0 to 100 scale where 0 is no effect and 100 is complete control. A dash (-) response means no test result.

[2] = test system: ragweed (common ragweed, Ambrosia elatior); assay: as above; details: 0 is no effect, 100 is complete control
From the text: as §1, §2

kochia (Kochia scoparia) [3] = assay: as above; details: 0 is no effect, 100 is complete control
From the text: as §1, §2

[4] = test system: barnyardgrass (Echinochloa crus-galli); assay: as above; details: 0 is no effect, 100 is complete control
From the text: as §1, §2

[5] = test system: ryegrass, It. (Italian ryegrass, Lolium multiflorum); assay: as above; details: 0 is no effect, 100 is complete control
From the text: as §1, §2

[6] = test system: pigweed (Amaranthus retroflexus); assay: as above; details: 0 is no effect, 100 is complete control
From the text: as §1, §2

[7] = test system: foxtail, giant (giant foxtail, Setaria faberii); assay: Test A postemergence application, visual injury rating; details: 0 to 100 scale, 0 no effect, 100 complete control
From the text: as §1, §2

[8] = test system: ragweed (common ragweed, Ambrosia elatior); assay: as above; details: 0 to 100 scale, 0 no effect, 100 complete control
From the text: as §1, §2

kochia (Kochia scoparia) [9] = assay: as above; details: 0 to 100 scale, 0 no effect, 100 complete control
From the text: as §1, §2

[10] = test system: barnyardgrass (Echinochloa crus-galli); assay: as above; details: 0 to 100 scale, 0 no effect, 100 complete control
From the text: as §1, §2

[11] = test system: ryegrass, It. (Italian ryegrass, Lolium multiflorum); assay: as above; details: 0 to 100 scale, 0 no effect, 100 complete control
From the text: as §1, §2

[12] = test system: pigweed (Amaranthus retroflexus); assay: as above; details: 0 to 100 scale, 0 no effect, 100 complete control
From the text: as §1, §2

[13] = test system: wheat (Triticum aestivum); assay: as above; details: 0 to 100 scale, 0 no effect, 100 complete control
From the text: as §1, §2

corn (Zea mays) = assay: as above; details: 0 to 100 scale, 0 no effect, 100 complete control
From the text: as §1, §2

[14] = test system: blackgrass (Alopecurus myosuroides); assay: as above; details: 0 to 100 scale, 0 no effect, 100 complete control
From the text: as §1, §2

[15] = test system: galium (catchweed bedstraw, Galium aparine); assay: as above; details: 0 to 100 scale, 0 no effect, 100 complete control
From the text: as §1, §2

| Structure (SMILES) | Plant response rating (0 to 100 scale), Foxtail, Giant ([1]; 125 g ai/ha) | Plant response rating (0 to 100 scale), Foxtail, Giant ([1]; 500 g ai/ha) | Plant response rating (0 to 100 scale), Kochia (kochia (Kochia scoparia) [3]; 125 g ai/ha) | Plant response rating (0 to 100 scale), Kochia (kochia (Kochia scoparia) [3]; 500 g ai/ha) | Plant response rating (0 to 100 scale), Barnyardgrass ([4]; 125 g ai/ha) | Plant response rating (0 to 100 scale), Barnyardgrass ([4]; 500 g ai/ha) | Plant response rating (0 to 100 scale), Ryegrass, It. ([5]; 125 g ai/ha) | Plant response rating (0 to 100 scale), Ryegrass, It. ([5]; 500 g ai/ha) | Plant response rating (0 to 100 scale), Pigweed ([6]; 125 g ai/ha) | Plant response rating (0 to 100 scale), Pigweed ([6]; 500 g ai/ha) | Foxtail, Giant plant response rating ([7]; 125 g ai/ha) | Foxtail, Giant plant response rating ([7]; 500 g ai/ha) | Ragweed plant response rating ([8]; 125 g ai/ha) | Ragweed plant response rating ([8]; 500 g ai/ha) | Kochia plant response rating (kochia (Kochia scoparia) [9]; 125 g ai/ha) | Kochia plant response rating (kochia (Kochia scoparia) [9]; 500 g ai/ha) | Barnyardgrass plant response rating ([10]; 125 g ai/ha) | Barnyardgrass plant response rating ([10]; 500 g ai/ha) | Ryegrass, It. plant response rating ([11]; 125 g ai/ha) | Ryegrass, It. plant response rating ([11]; 500 g ai/ha) | other results |
| --- | --- | --- | --- | --- | --- | --- | --- | --- | --- | --- | --- | --- | --- | --- | --- | --- | --- | --- | --- | --- | --- |
| CCC(=O)Oc1c(C)nn(C)c(=O)c1-c1cccc2sccc12 [Compound 4] | 0 | 20 | 0 | 60 | 0 | 20 | 40 | 100 | 40 | 70 | 0 | 20 | 0 | 40 | 0 | 20 | 0 | 20 | 80 | 100 | Plant response rating (0 to 100 scale), Ragweed ([2]; 125 g ai/ha): 0; Plant response rating (0 to 100 scale), Ragweed ([2]; 500 g ai/ha): 20; Pigweed plant response rating ([12]; 125 g ai/ha): 20; Pigweed plant response rating ([12]; 500 g ai/ha): 30; Wheat plant response rating ([13]; 125 g ai/ha): 0; Wheat plant response rating ([13]; 500 g ai/ha): 0; Corn plant response rating (corn (Zea mays); 125 g ai/ha): 0; Corn plant response rating (corn (Zea mays); 500 g ai/ha): 0; Blackgrass plant response rating ([14]; 125 g ai/ha): 20; Blackgrass plant response rating ([14]; 500 g ai/ha): 30; Galium plant response rating ([15]; 125 g ai/ha): 70; Galium plant response rating ([15]; 500 g ai/ha): 90 |
| CCOC(=O)Oc1c(C)nn(C)c(=O)c1-c1cccc2sccc12 [Compound 5] | 0 | 40 | 10 | 30 | 0 | 40 | 80 | 100 | 20 | 100 | 0 | 20 | 0 | 20 | 0 | 20 | 0 | 20 | 70 | 90 | Plant response rating (0 to 100 scale), Ragweed ([2]; 125 g ai/ha): 0; Plant response rating (0 to 100 scale), Ragweed ([2]; 500 g ai/ha): 20; Pigweed plant response rating ([12]; 125 g ai/ha): 0; Pigweed plant response rating ([12]; 500 g ai/ha): 20; Wheat plant response rating ([13]; 125 g ai/ha): 0; Wheat plant response rating ([13]; 500 g ai/ha): 20; Corn plant response rating (corn (Zea mays); 125 g ai/ha): 0; Corn plant response rating (corn (Zea mays); 500 g ai/ha): 0; Blackgrass plant response rating ([14]; 125 g ai/ha): 30; Blackgrass plant response rating ([14]; 500 g ai/ha): 60; Galium plant response rating ([15]; 125 g ai/ha): 30; Galium plant response rating ([15]; 500 g ai/ha): 80 |
| Cc1cnc2sc(C)c(-c3c(OC(=O)OC(C)C)c(C)nn(C)c3=O)c2c1 [Compound 6] | 20 | 0 | 0 | 50 | 0 | 0 | 0 | 50 | 0 | 70 | 20 | 40 | 10 | 30 | 30 | 60 | 0 | 10 | 20 | 60 | Plant response rating (0 to 100 scale), Ragweed ([2]; 125 g ai/ha): 0; Pigweed plant response rating ([12]; 125 g ai/ha): 20; Pigweed plant response rating ([12]; 500 g ai/ha): 80; Wheat plant response rating ([13]; 125 g ai/ha): 0; Wheat plant response rating ([13]; 500 g ai/ha): 0; Corn plant response rating (corn (Zea mays); 125 g ai/ha): 0; Corn plant response rating (corn (Zea mays); 500 g ai/ha): 0; Blackgrass plant response rating ([14]; 125 g ai/ha): 0; Blackgrass plant response rating ([14]; 500 g ai/ha): 20; Galium plant response rating ([15]; 125 g ai/ha): 50; Galium plant response rating ([15]; 500 g ai/ha): 70 |
| Cc1cnc2sc(C)c(-c3c(OC(=O)C4CC4)c(C)nn(C)c3=O)c2c1 [Compound 9] | 0 | 40 | 0 | 30 | 0 | 0 | 30 | 70 | 0 | 30 | 0 | 40 | 10 | 30 | 40 | 50 | 0 | 20 | 30 | 60 | Plant response rating (0 to 100 scale), Ragweed ([2]; 500 g ai/ha): 30; Pigweed plant response rating ([12]; 125 g ai/ha): 50; Pigweed plant response rating ([12]; 500 g ai/ha): 80; Wheat plant response rating ([13]; 125 g ai/ha): 0; Wheat plant response rating ([13]; 500 g ai/ha): 0; Corn plant response rating (corn (Zea mays); 125 g ai/ha): 0; Corn plant response rating (corn (Zea mays); 500 g ai/ha): 0; Blackgrass plant response rating ([14]; 125 g ai/ha): 0; Blackgrass plant response rating ([14]; 500 g ai/ha): 20; Galium plant response rating ([15]; 125 g ai/ha): 50; Galium plant response rating ([15]; 500 g ai/ha): 60 |

Reference: patent US10750743B2, “Pyridazinone herbicides” (E.I. DU PONT DE NEMOURS AND COMPANY, priority 2015, dated 2020)
